Reference: PMC5090206, “Fluselenamyl: A Novel Benzoselenazole Derivative for PET Detection of Amyloid Plaques (Aβ) in Alzheimer’s Disease” (Scientific Reports, 2016)

Experiments:
Aβ1–42 fibrils = molecular target: T1, Aβ1–42 fibrils (Homo sapiens, UniProt P05067); assay: Saturation binding of [18F]-9 with Aβ1–42 fibrils
T1 construct: Commercially available amyloid peptide Aβ1-42; purchased
Protocol: For assessing the ability of [^18F]-9 to bind Aβ plaques; binding assays with either AD homogenates or preformed Aβ1–42 aggregates were performed in 30 mM Tris, pH 7.4 buffer supplemented with 0.1% BSA[39]. Nonspecific binding was determined in the presence of 5 (1 μM) as a competitor.
Scientific Reports Version of August 4, 2016
Binding assays were performed using previously described methods.11 Briefly, a fixed concentration (0.25 µM/well) of Aβ1–42 fibrils was incubated for 1 h at 37 °C with increasing concentrations of [18F]-9 (0.1 nM-15 nM) in 30 mM Tris-HCl pH 7.4, 0.1% BSA in a reaction volume of 150 µl. […] The exact hot:cold ([18F]-9 : 5) ratio was measured in each experiment by counting an aliquot of a sample (2 µl) of the radioligand preparation in a scintillation counter. Binding of [18F]-9 to human brain homogenates was assessed by incubating samples of insoluble fraction (1.25 µg insoluble protein/well) from AD subjects, with increasing concentrations of [18F]-9 (0.1nM-18 nM) for 1 h at 37 °C. Nonspecific binding was determined in parallel experiments in the presence of 5 (1 µM) as a competitor. […] Glass fiber filters containing the bound ligand were mixed with Optiphase Supermix scintillation cocktail (150µl; PerkinElmer) and counted immediately. […]
Bmax values were calculated in pmol/gram wet weight of brain tissue. […]

[1] = Biodistribution studies of [18F]-9 in normal mice; assay type: in vivo; details: for Blood uptake / Bone uptake / Brain uptake / Heart uptake / Kidney uptake / Liver uptake / Lung uptake: tail-vein injection
Protocol: Uptake in brain and other critical organs was analyzed in terms of percent injected dose per gram of the tissue (%ID/g) SI Table 1. For in vivo imaging of Aβ plaques, the basic pharmacokinetic model in normal brains involves a high initial penetration of the agent, accompanied by facile clearance due to lack of a binding target. […] For comparison, brain uptake ratios of [^18F]-AV-45 (2 min/2 h) and [^18F]-Florbetaben (2 min/4 h) in normal mice are 4.07 (%ID/g (brain): 2 min: 7.33 ± 1.54; 2 h: 1.80 ± 0.07; 7.33/1.80; 4.07)[10] and 5.0 (%ID/g (brain): 2 min: 4.77; 4 h: 0.95; 4.77/0.95; 5.02)[46], respectively. […] For an agent to be able to serve as an Aβ-imaging agent, literature precedents indicate that brain uptake ratio (%ID/g; the earliest time–point; 2–5 min to that of the latest time point; typically for carbon-11; 30–60 min; and F-18, 2 h) of 3.5 or above could be considered as a benchmark for ability of a given agent to cross the blood-brain barrier. Additionally, the brain uptake of a given imaging agent is also a net function of several components, such as cerebral regional blood flow, BBB permeability, plasma radiotracer concentration, and free fractions of the radiotracer in plasma and in the brain. Furthermore, the lipophilicity of a given compound also reflects a critical physicochemical trait for neuroimaging radiotracers due to its direct relationship to membrane permeability, solubility in water, and entropic contribution to binding. Literature precedents indicate that lipophilic drugs readily cross the BBB, although other chemical characteristics, including the number of hydrogen bonds, molecular weight, polar surface area and molecular size are also known to be critical traits for passive transport. […] Conversely, radiotracers that are too lipophilic can also bind plasma proteins, undergo fast metabolism, while also contributing to high nonspecific binding, such as white matter. […] Additionally, the agent [^18F]-9 excreted from other critical organs over 2 h (SI, Table 1); a critical factor likely to result in favorable dosimetry; although slight defluorination as a function of time is also evident from bone accumulation; yet consistent with pharmacokinetic profiles of other FDA approved agents. For assessing directly the ability of radiotracer to traverse the BBB, [^18F]-9 (170 μCi) was injected into a 24 months old APP/PS1 transgenic mouse and its age-matched WT counterpart, and 30 min post tail-vein injection, the brains were removed, frozen, and sectioned for autoradiography (Fig. 7A–E). […] For ROI analysis of the PET signal in brain section autoradiograms of transgenic mouse (Fig. 7A) and its WT counterpart (Fig. 7D), we used measured count densities in cortex and amygdala target regions and compared them with that of hypothalamus as reference region with a low plaque density as determined by Aβ immunostaining (Fig. 7B). The target/reference ratio (mean ± SD) in the transgenic mouse was 1.88 ± 0.22 compared to 0.96 ± 0.12 in the WT control mouse (Fig. 7E). Since brain stem was also devoid of plaques, we also analyzed the above target regions using brain stem as a reference region, and observed target/reference value in the transgenic to be 0.89 ± 0.1 compared to 0.45 ± 0.07 in the WT mouse. […]
The count intensity (expressed as quantitative light unit (QL)/pixel2) was measured for each ROI after background subtraction, and target/reference ratios for Tg and WT brain were used to compare radiotracer uptake. The final figure was assembled in Adobe Photoshop CS3.
All animal procedures were approved by the Washington University Animal Studies Committee (Protocol # 20150147; Expiration 7/31/18). Thus, biodistribution studies were carried out in "accordance" with the approved guidelines. Pharmacokinetics of 18F-9 in brain and other critical tissues of normal male 12 week old BL6 (WT; 28-36 g) mice were determined as previously described 15. Briefly, 18F-9 (740 kBq) was […]

T1 sequence (P05067 672-713 limits assumed): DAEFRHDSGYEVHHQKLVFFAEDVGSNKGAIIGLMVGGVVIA

CN(C)c1ncc(/C=C\c2nc3cc(OCC[18F])ccc3[se]2)cn1 [[^18F]-9]
Bmax (Aβ1–42 fibrils): 1.3 pmol/nmol | Kd (Aβ1–42 fibrils; 30 mM Tris pH 7.4, 0.1% BSA, one-site model): 1.6 nM | brain uptake clearance ratio superior to [18F]-AV-45 ([1]; healthy mice, 2 min/120 min): 1.3 fold | brain clearance ratio (%ID/g) 2 min/120 min ([1]; normal mice): 5.33 | Blood uptake ([1]; normal mice, 2 min): 4.79 ± 0.33 % ID/g | Bone uptake ([1]; normal mice, 2 min): 1.15 ± 0.15 % ID/g | Brain uptake ([1]; normal mice, 2 min): 8.86 ± 0.32 % ID/g | Heart uptake ([1]; normal mice, 2 min): 8.56± 0.78 % ID/g | Kidney uptake ([1]; normal mice, 2 min): 14.93± 0.85 % ID/g | Liver uptake ([1]; normal mice, 2 min): 35.44 ± 2.52 % ID/g | Lung uptake ([1]; normal mice, 2 min): 10.07± 0.74 % ID/g | Blood uptake ([1]; normal mice, 60 min): 2.27 ± 0.06 % ID/g | Bone uptake ([1]; normal mice, 60 min): 3.88 ± 1.48 % ID/g | Brain uptake ([1]; normal mice, 60 min): 1.80 ± 0.02 % ID/g | Heart uptake ([1]; normal mice, 60 min): 2.15 ± 0.02 % ID/g | Kidney uptake ([1]; normal mice, 60 min): 2.52 ± 0.06 % ID/g | Liver uptake ([1]; normal mice, 60 min): 8.64 ± 0.15 % ID/g | Lung uptake ([1]; normal mice, 60 min): 2.23 ± 0.11 % ID/g | Blood uptake ([1]; normal mice, 120 min): 2.16 ± 0.03 % ID/g | Bone uptake ([1]; normal mice, 120 min): 6.08 ± 0.85 % ID/g | Brain uptake ([1]; normal mice, 120 min): 1.66 ± 0.01 % ID/g | Heart uptake ([1]; normal mice, 120 min): 1.92 ± 0.05 % ID/g | Kidney uptake ([1]; normal mice, 120 min): 2.12 ± 0.09 % ID/g | Liver uptake ([1]; normal mice, 120 min): 8.13 ± 0.12 % ID/g | Lung uptake ([1]; normal mice, 120 min): 1.98 ± 0.05 % ID/g
